The values that follow come from publication PMC11636765, “Importance of Considering Fed-State Gastrointestinal Physiology in Predicting the Reabsorption of Enterohepatic Circulation of Drugs” (Pharmaceutical Research, 2024).

Data set [1] can be described thus: In vitro dissolution test of tablets in biorelevant media (USP apparatus II paddle). In kind it is physicochemical. To be noted: for Dissolution in FaSSIF-V2: tablet, 500 mL, paddle 50 rpm, up to 60 min. How it is done:
(§1) Fasted State Simulated Gastric Fluid (FaSSGF) and Fasted State Simulated Intestinal Fluid version 2 (FaSSIF-V2) were used for dissolution tests and solubility tests. Fed State Simulated Intestinal Fluid version 2 (FeSSIF-V2) was used for solubility tests. These media contain sodium taurocholate as the bile acid. Their composition and preparation method have been previously reported and were prepared accordingly, except that FaSSGF was used without pepsin.
For in vitro dissolution tests, a USP apparatus II paddle dissolution tester (NTR-6400AC, Toyama Sangyo Co., Ltd., Osaka, Japan) was used. The media volume of FaSSGF and FaSSIF-V2 was 300 mL and 500 mL, respectively, and temperature in the dissolution vessel was maintained at 37℃ ± 0.5℃. […] Paddle rotation speed during the dissolution test was maintained at 50 rpm for up to 60 min. The samples were filtered through PVDF 0.45 µm filters (Whatman, GD/X, 13 mm, Cytiva, Chicago, IL, USA) immediately after withdrawal, and filtrates were recovered after the first 2 mL was discarded. […] All dissolution tests were conducted in triplicate.
When the tablets […] during the infinity spin in the dissolution test, separate solubility measurements were performed, as described in the next paragraph.
TSKgel ODS-100Z 5 µm (4.6 mm × 15 cm, Tosoh Corporation, Tokyo, Japan) was used as analytical column for both drugs. Column temperature during analysis was set to 40℃. A mixture of perchlorate (Na) buffer pH 2.5 and acetonitrile (50:50, v/v) was used as mobile phase. […] Flow rate and injection volume were 1.2 mL/min and 10 μL, respectively. […]

The conditions of data set [2]: cited from earlier work.
Details of data set [3]: method as in earlier work. The note with it: cited from earlier work.
The nature of data set [4]: Estimation of effective permeability (Peff) in the human small intestine from Caco-2 Papp.
Excerpt: The Papp for each compound was cited from previous reports [39, 40] or calculated using an equation [41] based on the reported partition coefficient [25, 42].
For data set [5] the following is noted: cited from earlier work. This is another data set of the same source.
The conditions of data set [6]: cited from earlier work. This is another data set of the same source.
Data set [7] can be described thus: Solubility test of drug substances in biorelevant media and free fraction calculation. In kind it is physicochemical. The note with it: for Free fraction: fraction of drug not entrapped in micelles in FeSSIF-V2, Eq. (8), from FaSSIF-V2/FeSSIF-V2 solubility; for Solubilization by bile micelles: in vitro solubility in biorelevant media. Here is the method: as §1
The excess amount of ezetimibe powder was added to 10 mL FaSSIF-V2 and FeSSIF-V2. Test tubes containing the drug substances in the biorelevant media were vigorously shaken at 37℃ ± 0.5℃ for 5 h. An approximately 5 mL sample was withdrawn using a plastic syringe, then filtered through a PVDF 0.45 µm filter. The filtrates (after discarding the first ca. 2 mL) were diluted with 50:50 v/v acetonitrile for analysis to prevent precipitation, except for that of ezetimibe tested in FeSSIF-V2. All solubility tests were conducted in triplicate.
TSKgel ODS-100Z 5 µm (4.6 mm × 15 cm, Tosoh Corporation, Tokyo, Japan) was used as analytical column for both drugs. Column temperature during analysis was set to 40℃. A mixture of perchlorate (Na) buffer pH 2.5 and acetonitrile (50:50, v/v) was used as mobile phase. […] Flow rate and injection volume were 1.2 mL/min and 10 μL, respectively.
Sodium taurocholate and lecithin concentration in FaSSIF-V2 are 3 mM and 0.2 mM, respectively, and those in FeSSIF-V2 are 10 mM and 2 mM, respectively. […] The formulation was considered able to exist in the small intestine for 4 h after administration. Initial intestinal fluid volume in both prandial states was set to 100 mL [31].

Where [8] appears, read: FaSSIF-V2, drug substance powder, 37℃, shaken 5 h, pH 6.5, read-out: Solubility in FaSSIF-V2.
[9] abbreviates: FeSSIF-V2, 37 °C, fessif, thermodynamic from solid, drug substance powder, 37℃, shaken 5 h, pH 5.8, read-out: Solubility in FeSSIF-V2.

Converted amounts (≈) assume the structure as drawn. Like-named read-outs stand apart in the source and are kept apart here.

As a reminder, the solubility is the dissolved amount per volume that the medium holds. As usually defined, the Log P is the decadic logarithm of the partition coefficient of the neutral form, usually between octanol and water. One may read the Papp as a coefficient for how fast a substance crosses the barrier. By pKa is commonly meant the pH at which an ionisable group is half protonated. In turn, `O=C1[C@H](CC[C@H](O)c2ccc(F)cc2)[C@@H](c2ccc(O)cc2)N1c1ccc(F)cc1` [Ezetimibe, ezetimibe] returned a solubility at 120 min in data set [1] (FaSSIF-V2, for PK simulation, Zetia: infinity point of tablet dissolution test, Mobic: adopted from drug substance solubility test) of 4.93 µg/mL (≈ 12 µM). In data set [1], the “Dissolution in FaSSIF-V2” value is recorded as “around 20%”. In addition, the lipophilicity (Log P) in data set [2] is listed as 4.5. Moreover, in data set [3], the “Solubility in the aqueous phase” value is reported as “virtually insoluble”. Besides, the apparent permeability coefficient (Papp) in data set [4] is 121 ×10⁻⁶ cm/s. Further, the pKa in data set [5] is on record as 9.7. Moreover, the “Effect of concomitant food on extent of absorption” value in data set [6] is recorded as “not affected”. For the same compound, the solubility at 5 h was 3.79 ± 0.133 µg/mL (≈ 9.26 µM) in data set [7] (setting [8]) and 22.3 ± 0.203 µg/mL (≈ 54.5 µM) in data set [7] (setting [9]). Also, the Free fraction in data set [7] is 0.169. In addition, the “Solubilization by bile micelles” value in data set [7] is listed as “clearly shown to be solubilized by the mixed micelles”.
Regarding `Cc1cnc(NC(=O)C2=C(O)c3ccccc3S(=O)(=O)N2C)s1` [Meloxicam, meloxicam], the “Dissolution in FaSSIF-V2” value in data set [1] is “about 80%”. Further, in data set [2] (calculated value based on apparent partition coefficient Log Papp), the “Log P” value is given as 3.32. For the same compound, the solubility at 5 h was 172 ± 12.3 µg/mL (≈ 489 µM) in data set [7] (setting [8]); 42.7 ± 1.53 µg/mL (≈ 122 µM) in data set [7] (setting [9]); 164 µg/mL (≈ 467 µM) in data set [7] (blank FaSSIF-V2 (without surfactant), drug substance, medium without surfactant, read-out: Solubility in blank FaSSIF-V2); 32.5 µg/mL (≈ 92.5 µM) in data set [7] (blank FeSSIF-V2 (without surfactant), drug substance, medium without surfactant, read-out: Solubility in blank FeSSIF-V2). Moreover, the Free fraction result in data set [7] is recorded as “Regard as 1”; in data set [7] (listed as meloxicam), 1. Further, the “Solubilization by bile micelles” value in data set [7] was “insignificant”.
Regarding `O=C(O)[C@H]1O[C@@H](Oc2ccc([C@@H]3[C@@H](CC[C@H](O)c4ccc(F)cc4)C(=O)N3c3ccc(F)cc3)cc2)[C@H](O)[C@@H](O)[C@@H]1O` [glucuronide], in data set [6] (humans, Zetia tablet), the “Plasma concentration of glucuronide relative to parent drug in terms of AUC” value is recorded as “about seven-fold”.
